Experimental data from patent US8962674B2 (Tokyo Institute of Technology, priority 2006, dated 2015).

**Q.** With `COc1cccc(OC)c1/C=C/C(=O)CC(=O)/C=C/c1ccc(O)cc1` [CU102, (1E,6E)-1-(2,6-dimethoxyphenyl)-7-(4-hydroxyphenyl)hepta-1,6-diene-3,5-dione] as the compound, how does the melting point read?
**A.** Its melting point is 165 to 170 °C.

**Q.** With `COc1cc(/C=C/C(=O)CC(=O)/C=C/c2ccc(O)cc2Cl)ccc1O` [CU129, (1E,6E)-1-(2-chloro-4-hydroxyphenyl)-7-(4-hydroxy-3-methoxyphenyl)hepta-1,6-diene-3,5-dione] as the compound, how does the melting point read?
**A.** Its melting point is 185 to 192 °C.

**Q.** For `CCn1c2ccccc2c2cc(/C=C/C(=O)CC(=O)/C=C/c3ccc(OC)c(O)c3)ccc21` [CU108, (1E,6E)-1-(9-ethyl-9H-carbazol-3-yl)-7-(3-hydroxy-4-methoxyphenyl)hepta-1,6-diene-3,5-dione], which melting point is on record?
**A.** The melting point was 100 to 103 °C.

**Q.** With `O=C(/C=C/c1ccc(O)cc1)CC(=O)/C=C/c1ccc2[nH]ncc2c1` [CU349, (1E,6E)-1-(4-hydroxyphenyl)-7-(1H-indazol-5-yl)hepta-1,6-diene-3,5-dione] as the compound, how does the melting point read?
**A.** The melting point was 148 to 152 °C.

**Q.** For `CN(C)c1cc(-c2ccccc2)ccc1/C=C/C(=O)CC(=O)/C=C/c1ccc(O)cc1` [CU536, (1E,6E)-1-(3-dimethylaminobiphenyl-4-yl)-7-(4-hydroxyphenyl)hepta-1,6-diene-3,5-dione], which melting point is on record?
**A.** The melting point was 83 to 88 °C.

**Q.** With `CCN(CC)c1ccc(/C=C/C(=O)CC(=O)/C=C/c2ccc(OC)c(O)c2)c(OCc2ccccc2)c1` [CU438, (1E,6E)-1-(2-benzyloxy-4-diethylaminophenyl)-7-(3-hydroxy-4-methoxyphenyl)hepta-1,6-diene-3,5-dione] as the compound, how does the melting point read?
**A.** Its melting point is 72 to 77 °C.

**Q.** Which melting point does the source give for `COc1ccc(/C=C/C(=O)CC(=O)/C=C/c2cccnc2)cc1O` [CU217, (1E,6E)-1-(3-hydroxy-4-methoxyphenyl)-7-(pyridin-3-yl)hepta-1,6-diene-3,5-dione] here?
**A.** The melting point was 174 to 175 °C.

**Q.** For `CCn1c2ccccc2c2cc(/C=C/C(=O)CC(=O)/C=C/c3ccc4c(c3)c3ccccc3n4CC)ccc21` [CU263, (1E,6E)-1,7-bis(9-ethyl-9H-carbazol-3-yl)hepta-1,6-diene-3,5-dione], which melting point is on record?
**A.** Its melting point is 264 to 267 °C.

**Q.** With `Cn1cc(/C=C/C(=O)CC(=O)/C=C/c2ccc(O)cc2)c2ccccc21` [CU123, (1E,6E)-1-(4-hydroxyphenyl)-7-(1-methyl-1H-indol-3-yl)hepta-1,6-diene-3,5-dione] as the compound, how does the melting point read?
**A.** Its melting point is 185 to 190 °C.

**Q.** For `COc1ccc(/C=C/C(=O)CC(=O)/C=C/c2ccccn2)cc1O` [CU218, (1E,6E)-1-(3-hydroxy-4-methoxyphenyl)-7-(pyridin-2-yl)hepta-1,6-diene-3,5-dione], which melting point is on record?
**A.** Its melting point is 182 to 187 °C.

**Q.** Which melting point does the source give for `O=C(/C=C/c1ccc(O)cc1)CC(=O)/C=C/c1ccc(Cl)c(Cl)c1` [CU045, (1E,6E)-1-(3,4-dichlorophenyl)-7-(4-hydroxyphenyl)hepta-1,6-diene-3,5-dione] here?
**A.** Its melting point is 83 to 85 °C.

**Q.** Which melting point does the source give for `COc1ccc2cc(/C=C/C(=O)CC(=O)/C=C/c3ccc(OC)c(O)c3)ccc2c1` [CU171, (1E,6E)-1-(3-hydroxy-4-methoxyphenyl)-7-(6-methoxynaphthalen-2-yl)hepta-1,6-diene-3,5-dione] here?
**A.** The melting point was 175 to 181 °C.

**Q.** For `COc1cc(/C=C/C(=O)CC(=O)/C=C/c2ccc(C)c(C)c2)ccc1O` [CU057, (1E,6E)-1-(3,4-dimethylphenyl)-7-(4-hydroxy-3-methoxyphenyl)hepta-1,6-diene-3,5-dione], which melting point is on record?
**A.** Its melting point is 132 to 133 °C.

**Q.** With `O=C(/C=C/c1ccc(O)cc1)CC(=O)/C=C/c1cn(Cc2ccccc2)c2ccccc12` [CU331, (1E,6E)-1-(1-benzyl-1H-indol-3-yl)-7-(4-hydroxyphenyl)hepta-1,6-diene-3,5-dione] as the compound, how does the melting point read?
**A.** The melting point was 243 to 249 °C.

**Q.** Which melting point does the source give for `COc1cc(/C=C/C(=O)CC(=O)/C=C/c2ccc(O)cc2)cc(OC)c1` [CU099, (1E,6E)-1-(3,5-dimethoxyphenyl)-7-(4-hydroxyphenyl)hepta-1,6-diene-3,5-dione] here?
**A.** Its melting point is 75 to 80 °C.

**Q.** Which melting point does the source give for `O=C(/C=C/c1ccc(O)cc1)CC(=O)/C=C/c1ncc[nH]1` [CU143, (1E,6E)-1-(4-hydroxyphenyl)-7-(1H-imidazol-2-yl)hepta-1,6-diene-3,5-dione] here?
**A.** Its melting point is 175 to 181 °C.

**Q.** Which melting point does the source give for `Cc1cc(/C=C/C(=O)CC(=O)/C=C/c2ccc(O)cc2)ccc1O` [CU029, (1E,6E)-1-(4-hydroxy-3-methylphenyl)-7-(4-hydroxyphenyl)hepta-1,6-diene-3,5-dione] here?
**A.** The melting point was 197 to 199 °C.

**Q.** Which melting point does the source give for `O=C(/C=C/c1ccc(O)cc1)CC(=O)/C=C/c1ccc(Br)cc1F` [CU471, (1E,6E)-1-(4-bromo-2-fluorophenyl)-7-(4-hydroxyphenyl)hepta-1,6-diene-3,5-dione] here?
**A.** Its melting point is 223 to 232 °C.

**Q.** With `COc1cc(/C=C/C(=O)CC(=O)/C=C/c2ccc(OCCCN(C)C)cc2)ccc1O` [CU018, (1E,6E)-1-[4-(3-dimethylaminopropoxy)phenyl]-7-(4-hydroxy-3-methoxyphenyl)hepta-1,6-diene-3,5-dione] as the compound, how does the melting point read?
**A.** The melting point was 155 to 159 °C.

**Q.** For `COc1cc(O)cc(/C=C/C(=O)CC(=O)/C=C/c2ccc(O)c(OC)c2)c1` [CU181, (1E,6E)-1-(3-hydroxy-5-methoxyphenyl)-7-(4-hydroxy-3-methoxyphenyl)hepta-1,6-diene-3,5-dione], which melting point is on record?
**A.** The melting point was 69 to 75 °C.

**Q.** With `COc1cc(/C=C/C(=O)CC(=O)/C=C/c2ccc(N(C)C)c(OC)c2)ccc1O` [CU033, (1E,6E)-1-(4-dimethylamino-3-methoxyphenyl)-7-(4-hydroxy-3-methoxyphenyl)hepta-1,6-diene-3,5-dione] as the compound, how does the melting point read?
**A.** The melting point was 68 to 75 °C.

**Q.** For `COc1cc(/C=C/C(=O)CC(=O)/C=C/c2cn(C)c3ccccc23)ccc1O` [CU124, (1E,6E)-1-(4-hydroxy-3-methoxyphenyl)-7-(1-methyl-1H-indol-3-yl)hepta-1,6-diene-3,5-dione], which melting point is on record?
**A.** Its melting point is 173 to 175 °C.

**Q.** With `O=C(/C=C/c1ccc(O)cc1)CC(=O)/C=C/c1ccccc1Br` [CU486, (1E,6E)-1-(2-bromophenyl)-7-(4-hydroxyphenyl)hepta-1,6-diene-3,5-dione] as the compound, how does the melting point read?
**A.** Its melting point is 155 to 159 °C.

**Q.** Which melting point does the source give for `COc1cc(O)ccc1/C=C/C(=O)CC(=O)CCc1ccc(O)cc1` [CU517, (E)-1-(4-hydroxy-2-methoxyphenyl)-7-(4-hydroxyphenyl)hept-1-ene-3,5-dione] here?
**A.** Its melting point is 131 to 135 °C.

**Q.** Which melting point does the source give for `COc1cc(O)cc(/C=C/C(=O)CC(=O)/C=C/c2ccc(OC)c(O)c2)c1` [CU182, (1E,6E)-1-(3-hydroxy-4-methoxyphenyl)-7-(3-hydroxy-5-methoxyphenyl)hepta-1,6-diene-3,5-dione] here?
**A.** Its melting point is 196 to 200 °C.

**Q.** For `O=C(/C=C/c1cc(O)ccc1-c1ccccc1)CC(=O)CCc1ccc(O)cc1` [CU541, (E)-1-(4-hydroxybiphenyl-2-yl)-7-(4-hydroxyphenyl)hept-1-ene-3,5-dione], which melting point is on record?
**A.** Its melting point is 148 to 158 °C.

**Q.** With `COc1c(O)cccc1/C=C/C(=O)CC(=O)/C=C/c1ccc(O)cc1` [CU174, (1E,6E)-1-(4-hydroxyphenyl)-7-(3-hydroxy-2-methoxyphenyl)hepta-1,6-diene-3,5-dione] as the compound, how does the melting point read?
**A.** The melting point was 165 to 169 °C.

**Q.** For `COc1ccc(/C=C/C(=O)CC(=O)/C=C/c2ccc(OCCCN(C)C)cc2)cc1O` [CU241, (1E,6E)-1-[4-(3-dimethylaminopropoxy)phenyl]-7-(3-hydroxy-4-methoxyphenyl)hepta-1,6-diene-3,5-dione], which melting point is on record?
**A.** The melting point was 183 to 186 °C.

**Q.** With `CC(C)(C)OC(=O)Nc1ccc(/C=C/C(=O)CC(=O)/C=C/c2ccc(O)cc2)cc1` [CU405, (1E,6E)-1-[4-(tert-butoxycarbonylamino)phenyl]-7-(4-hydroxyphenyl)hepta-1,6-diene-3,5-dione] as the compound, how does the melting point read?
**A.** Its melting point is 181 to 184 °C.

**Q.** With `COc1cc(/C=C/C(=O)CC(=O)/C=C/c2ccc(N(C)C)cc2OC)ccc1O` [CU154, (1E,6E)-1-(4-dimethylamino-2-methoxyphenyl)-7-(4-hydroxy-3-methoxyphenyl)hepta-1,6-diene-3,5-dione] as the compound, how does the melting point read?
**A.** The melting point was 117 to 119 °C.

**Q.** With `O=C(/C=C/c1ccc(O)cc1)CC(=O)/C=C/c1ccccc1-c1cccnc1` [CU513, (1E,6E)-1-(4-hydroxyphenyl)-7-[2-(pyridin-3-yl)phenyl]hepta-1,6-diene-3,5-dione] as the compound, how does the melting point read?
**A.** Its melting point is 180 to 189 °C.

**Q.** Which melting point does the source give for `Nc1ccc(O)cc1/C=C/C(=O)CC(=O)/C=C/c1ccc(O)cc1` [CU488, (1E,6E)-1-(2-amino-5-hydroxyphenyl)-7-(4-hydroxyphenyl)hepta-1,6-diene-3,5-dione] here?
**A.** The melting point was 186 to 192 °C.

**Q.** For `CSc1ccc(/C=C/C(=O)CC(=O)/C=C/c2ccc(O)cc2)cc1` [CU235, (1E,6E)-1-(4-hydroxyphenyl)-7-(4-methylthiophenyl)hepta-1,6-diene-3,5-dione], which melting point is on record?
**A.** Its melting point is 169 to 171 °C.

**Q.** For `CCN(CC)c1ccc(/C=C/C(=O)CC(=O)/C=C/c2ccc(O)c(OC)c2)c(OC(C)C)c1` [CU439, (1E,6E)-1-(4-diethylamino-2-isopropyloxyphenyl)-7-(4-hydroxy-3-methoxyphenyl)hepta-1,6-diene-3,5-dione], which melting point is on record?
**A.** The melting point was 156 to 160 °C.

**Q.** With `COc1cc(/C=C/C(=O)CC(=O)/C=C/c2ccco2)ccc1O` [CU015, (1E,6E)-1-(furan-2-yl)-7-(4-hydroxy-3-methoxyphenyl)hepta-1,6-diene-3,5-dione] as the compound, how does the melting point read?
**A.** Its melting point is 48 to 50 °C.

**Q.** With `O=C(/C=C/c1ccc(O)cc1)CC(=O)/C=C/c1ccccc1N1CCCCC1` [CU497, (1E,6E)-1-(4-hydroxyphenyl)-7-[2-(piperidin-1-yl)phenyl]hepta-1,6-diene-3,5-dione] as the compound, how does the melting point read?
**A.** Its melting point is 77 to 84 °C.

**Q.** For `Cc1ccc(-n2cccc2/C=C/C(=O)CC(=O)/C=C/c2ccc(O)cc2)cc1` [CU338, (1E,6E)-1-(4-hydroxyphenyl)-7-[1-(4-methylphenyl)-1H-pyrrol-2-yl]hepta-1,6-diene-3,5-dione], which melting point is on record?
**A.** Its melting point is 144 to 150 °C.

**Q.** For `COc1ccc(/C=C/C(=O)CC(=O)/C=C/c2cccc(Oc3ccccc3)c2)cc1O` [CU220, (1E,6E)-1-(3-hydroxy-4-methoxyphenyl)-7-(3-phenoxyphenyl)hepta-1,6-diene-3,5-dione], which melting point is on record?
**A.** Its melting point is 148 to 150 °C.

**Q.** Which melting point does the source give for `Nc1ccccc1/C=C/C(=O)CC(=O)/C=C/c1ccc(O)cc1` [CU482, (1E,6E)-1-(2-aminophenyl)-7-(4-hydroxyphenyl)hepta-1,6-diene-3,5-dione] here?
**A.** Its melting point is 186 to 193 °C.

**Q.** With `COc1ccc(O)c(/C=C/C(=O)CC(=O)/C=C/c2ccc(O)cc2)c1` [CU253, (1E,6E)-1-(2-hydroxy-5-methoxyphenyl)-7-(4-hydroxyphenyl)hepta-1,6-diene-3,5-dione] as the compound, how does the melting point read?
**A.** The melting point was 167 to 170 °C.
